Assay results as given in ChEMBL document CHEMBL3507680, “University of Dundee, Gates Library screen for HepG2 cell viability”.

Assay: Human HepG2 cell viability assay in 384 well format
Type: toxicity, cell-based
Design: dose 125 nL, time 70.5 hour; concentration not given beside the values
Details: HepG2 cells, read-out: Inhibition

Compound | cytotoxicity at 70.5 h
CN(Cc1ccc(Cl)s1)C(=O)Cn1nc(-c2ccc(F)cc2)oc1=O | -13.3%
CNc1cc(N2CCCC2CNCc2ccc(Cl)o2)ncn1 (stereo not given) | 8.16%
CN(CC(=O)NCc1ccco1)Cc1nc2c(s1)CCCC2 | 4%
CC(C)c1nccc(CN2CCCC(O)(CN(C)C)C2)n1 (stereo not given) | 15%
CC(SCCC(=O)NC(N)=O)c1c(F)cccc1F (stereo not given) | -10.5%
COc1nc2ccn(CCc3cc(O)nc(C)n3)c(=O)c2cc1C#N | -7.61%
O=C(NCCOc1ccc(F)cc1)C1CCCN(C(=O)C2CC2)C1 (stereo not given) | -17.7%
COCc1cnc2n1CCN(C(=O)c1oc3ccccc3c1C)C2C (stereo not given) | 18.3%
CCCc1cc(C(=O)Nc2nc(SC)ns2)[nH]n1 | -4.32%
Cc1noc(CNc2ccccc2N2CCCCC2)n1 | -2.98%
Cc1nc(C(=O)N2C[C@@H]3COC[C@]3(COCc3cccnc3)C2)cs1 | -6.56%
CCCS(=O)(=O)N1Cc2ccnn2CC(c2nc(C)no2)C1 (stereo not given) | -4.93%
Cc1ccccc1C1(CNc2nnc(C)c(C)c2C#N)CCOCC1 | -6.42%
CCS(=O)(=O)N1CCN(C(C)c2ncc(-c3ccccc3)o2)CC1 (stereo not given) | -19.2%
CN(Cc1cscn1)C1CCCN(c2cccnn2)C1 (stereo not given) | 18%
CCc1nccn1C1CCCN(C(=O)c2ccc3nncn3c2)C1 (stereo not given) | -6.04%
O=C(c1c[nH]nc1-c1cccc(F)c1)N1CCNC(c2ccccc2)C1 (stereo not given) | -9.77%
CN(Cc1ccco1)C(=O)Nc1ccc(=O)n(C)c1 | 0.639%
Cn1nc(CNC(=O)C2CCCCC2)cc1C1CC1 | 33%
Cc1csc(CCCNC(C)CC(=O)Nc2ccc(F)cc2)n1 (stereo not given) | 5.43%
CCOC(=O)CC(c1ccc(OC)c(OC)c1)c1c(O)n[nH]c1C (stereo not given) | -15.2%
Cc1n[nH]c2c1C(c1ccc(Br)cc1)SCC(=O)N2 (stereo not given) | -8.1%
CCCn1cc(-c2cc(-c3cc(CC)n[nH]3)c(C#N)c(N)n2)c(C)n1 | -3.18%

Compound | cytotoxicity at 70.5 h
CC1CCN(S(=O)(=O)c2cccn(CC(=O)NC(C)(C)C)c2=O)CC1 | -9.49%
Cc1nc(O)cc([C@@H]2CN(S(=O)(=O)N(C)C)C[C@H]2c2ccccc2F)n1 | -8.96%
N[C@@H]1CC[C@H](C(=O)NCCn2cc(Cl)cn2)C1 | 3.97%
Cc1ccc(S(C)(=O)=O)cc1C(=O)N(C)Cc1ccco1 | -3.41%
CCn1cnnc1Cc1nc2c([nH]1)CC(c1ccc(Cl)cc1)CNC2=O (stereo not given) | 6.53%
O=S(=O)(c1ccccc1)N1CCCC(c2nccs2)C1 (stereo not given) | -2%
CC(NC(=O)NCCCn1cccn1)c1ccc2c(c1)OCCCO2 (stereo not given) | 13.2%
OC(CN1CCC(c2ccn[nH]2)CC1)c1ccc(F)cc1F (stereo not given) | -5.74%
O=C(O)[C@@H]1CCN(C(=O)c2ccccn2)[C@@H]1c1ccc(F)cc1 | -7.21%
Cc1ccc(C2CCCCCN2CCNS(C)(=O)=O)o1 (stereo not given) | -5.05%
O=C1CCN(CCCS(=O)(=O)c2ccc(Cl)cc2)CCN1 | -4.67%
Cc1nc(C2CCCN(C(=O)c3ccoc3)C2)no1 (stereo not given) | -7%
CC(C)C(NC(N)=O)C(=O)NCc1ccc(N2CCCC2)nc1 (stereo not given) | -9.75%
Cc1cc(C)n2c(CCCNS(=O)(=O)c3ccc(F)cc3)nnc2n1 | -8.75%
CC(C)c1nc(CN(C)Cc2ccc(O)c(C(=O)O)c2)cs1 | -4.7%
CC(C)=CCN1CC2(CCN(C(=O)CCn3ccnc3C)CC2)CC1=O | 0.368%
CN(CC(=O)N1CCCC1Cn1cccn1)C1CC1 (stereo not given) | -14.3%
CCC[C@@H]1CN(C(=O)c2cc3ccccc3s2)C[C@H]1NS(C)(=O)=O | -2.51%
CC(=O)N1CCC(n2ccc(-c3cnc(NCC(C)C)nc3)n2)CC1 | -5.12%
CCC(NC(=O)NCc1cccc(N(C)C)n1)c1cccs1 (stereo not given) | -11.8%
CN1[C@H]2CC[C@@H]1CN(C(=O)c1ccc(-c3ccccc3)[nH]1)CC2 | -2.64%
O=S(=O)(NC(CO)Cc1c[nH]c2ccccc12)c1cncc(F)c1 (stereo not given) | -4.62%
